Test system: Hippocampal neurons
Test: Western blot of VGF protein after BDNF treatment
Format: cell-based, rat
From the text: The products of the genes induced following learning may regulate neuronal plasticity at the single-cell level. VGF, like BDNF, is a secreted polypeptide and thus may be relevant for intercellular communication. A functional role for VGF in synaptic plasticity was thus investigated. To determine whether BDNF-induced transcriptional changes of VGF were accompanied by translational alterations, VGF levels were examined following BDNF treatment by western blot analysis. VGF, migrating as a doublet with an apparent molecular weight of 85-90 kD, increased by 1.5-fold within 3 hours of BDNF exposure. VGF protein levels were maximal at 12 hours and remained elevated for 48 hours of continuous BDNF application. Consequently, increased VGF mRNA levels after 3 hours BDNF treatment were associated with enhanced protein translation. VGF protein processing occurs in both neurons and neuroendocrine cells (Trani et al. (1995) J. Neurochem. 65:2441-2449; Salton et al. (2000) supra). The localization of VGF in dissociated hippocampal cultures was examined using a C-terminal antibody (R-15) which labeled both the soma and neurites indicating translocation to the neuronal processes. The expression of VGF was similar to that previously observed in primary neuronal cultures (Benson and Salton (1996) Brain Res. Dev. Brain Res. 96:219-228) and was punctate in appearance. This pattern is consistent with the regulated release of VGF from large dense core vesicles (Trani et al. (1995) supra; Benson and Salton (1996) supra; Possenti et al. (1999) Endocrinology 140:3727-3735) and indicates a physiological role for the peptide.
BDNF-treated and untreated hippocampal neurons plated in equal numbers were solubilized in lysis buffer (20 mM Tris pH 8, 0.5% Triton X-100, 0.5% SDS, protease inhibitor tablet, 1 mM PMSF, and 0.5 mM vanadate). The protein content was determined with the BCA protein assay kit (Pierce Chemical Co, Rockford, Ill.). […] The immunopositive bands were visualized by chemiluminescence using the ECL™ detection kit (NEN, Boston, Mass.), quantitated on a BIO-RAD Gel Doc and normalized to actin.

Q: “BDNF: neurotrophin, 50 ng/ml, Preprotech; induces synaptic plasticity in hippocampal neurons” was tested. Which “Time VGF protein levels remained elevated” value (continuous BDNF application) did it give?
A: The value was 48 h.

Q: What about the “Time of maximal VGF protein levels” value (continuous BDNF application) of the same substance?
A: The value was 12 h.

Q: And the “Increase in VGF protein” value (within 3 hours of BDNF exposure, western blot)?
A: The value was 1.5 fold.
